Reference: patent US10669252B2, “Benzazepine derivative, preparation method, pharmaceutical composition and use thereof” (SHANGHAI DE NOVO PHARMATECH CO., LTD., priority 2016, dated 2020)
pEC50: −log10 of the molar value. Values belong to the compound of their own block, whether it stands above or below them.

Legend:
TLR7 = molecular target: T1, TLR7 (Homo sapiens, UniProt Q9NYK1); test: TLR7 cell based assay (HEK-BLUE-hTLR7, SEAP reporter linked to NF-κB activation); conditions: HEK-BLUE-hTLR7 cells, 24 hours treatment, SEAP/QUANTI-Blue readout
T1 construct: host or cells: HEK293 (HEK-BLUE-hTLR7)
T1 sequence (Q9NYK1 27-1049): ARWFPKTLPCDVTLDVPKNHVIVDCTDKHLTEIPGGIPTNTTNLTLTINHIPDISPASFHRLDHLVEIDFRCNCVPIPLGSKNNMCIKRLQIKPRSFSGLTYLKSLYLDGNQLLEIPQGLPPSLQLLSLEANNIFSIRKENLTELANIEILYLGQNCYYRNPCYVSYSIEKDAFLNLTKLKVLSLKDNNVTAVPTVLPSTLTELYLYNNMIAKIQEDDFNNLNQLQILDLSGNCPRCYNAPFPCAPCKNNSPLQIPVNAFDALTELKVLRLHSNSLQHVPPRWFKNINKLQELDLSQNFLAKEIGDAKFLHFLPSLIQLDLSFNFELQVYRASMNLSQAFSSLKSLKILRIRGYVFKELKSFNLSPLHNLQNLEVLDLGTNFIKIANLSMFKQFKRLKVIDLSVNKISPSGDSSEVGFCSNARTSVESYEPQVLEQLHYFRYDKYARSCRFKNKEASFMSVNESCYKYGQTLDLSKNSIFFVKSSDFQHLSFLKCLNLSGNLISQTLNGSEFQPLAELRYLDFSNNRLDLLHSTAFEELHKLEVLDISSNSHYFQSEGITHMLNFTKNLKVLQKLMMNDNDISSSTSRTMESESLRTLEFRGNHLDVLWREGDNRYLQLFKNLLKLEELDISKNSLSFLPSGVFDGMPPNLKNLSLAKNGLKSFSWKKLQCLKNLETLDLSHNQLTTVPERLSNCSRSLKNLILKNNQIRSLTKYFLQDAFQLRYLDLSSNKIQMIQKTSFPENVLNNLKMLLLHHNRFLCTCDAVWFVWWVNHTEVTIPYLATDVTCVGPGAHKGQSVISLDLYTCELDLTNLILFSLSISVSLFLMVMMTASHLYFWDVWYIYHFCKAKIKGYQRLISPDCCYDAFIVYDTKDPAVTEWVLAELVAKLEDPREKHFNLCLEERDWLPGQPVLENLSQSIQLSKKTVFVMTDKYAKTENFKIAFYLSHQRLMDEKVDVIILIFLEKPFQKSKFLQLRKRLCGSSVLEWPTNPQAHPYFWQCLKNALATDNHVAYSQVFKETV
Procedure: (§1) In this assay, the bioactivity of compound of formula (I) was measured using a cell based assay. The assay was performed in human embryonic kidney cells (HEK293) expressing TLR7 or other TLR family members such as TLR4, and TLR9 (for selectivity screens). The activity of specific TLR agonists was assessed using the secretory embryonic alkaline phosphatase (SEAP) reporter gene that is linked to NF-κB activation in response to TLR stimulation. The SEAP activity was measured using the Quanti-Blue substrate (InvivoGen) after TLR agonist treatment.
(§2) The detailed experimental method is as follow:
HEK-BLUE-hTLR7 cell line was purchased from InvivoGen. The cells were cultured in Dulbecco's Modified Eagle's Media containing 4.5 g/L […] (Sigma-Aldrich) and 10% FBS. The cells were cultured at 37° C., 95% humidity and 5% CO2.
[…] A known TLR8 agonist was added as positive control and 1 μl of DMSO was added as negative control.
(§3) The cells were prepared as follows. The cells were removed from the incubator and growth medium was discarded. The cells were gently rinsed with pre-warmed 10 ml PBS for a T-150 flask. 12 ml pre-warmed growth medium was added, and the cells were detached by tapping the flask. Cell clumps were dissociated by gently pipetting up and down. The cells were counted. Single cell suspension was prepared at 200,000 cells per ml in growth medium and 200 μl of the cell suspension (40,000 cells per well) were immediately added to each well of the plate. The final DMSO concentration of each well was 0.5%.
The cells were cultured and treated with the compounds at 37° C., 5% CO2 for 24 hours.
(§4) 20 μL of the supernatant of each well were added to 180 μL of QUANTI-Blue, and the plates were incubated at 37° C. for 1.5 hour. Optical density was measured using a spectrophotometer at 650 nm (OD data). Activivation was calculated by using the equation below: Activivation %=(Compound OD mean value−DMSO OD mean value)/(positive control OD mean value−DMSO OD mean value)×100
(§5) The data were analyzed using the GraphPad to get EC50 values and fitting dose response curves of the compounds.

TLR8 = molecular target: T2, TLR8 (Homo sapiens, UniProt Q9NR97); test: TLR8 cell based assay (HEK-BLUE-hTLR8, SEAP reporter linked to NF-κB activation); conditions: HEK-BLUE-hTLR8 cells
T2 construct: host or cells: HEK293 (HEK-BLUE-hTLR8)
T2 sequence (Q9NR97 27-1041): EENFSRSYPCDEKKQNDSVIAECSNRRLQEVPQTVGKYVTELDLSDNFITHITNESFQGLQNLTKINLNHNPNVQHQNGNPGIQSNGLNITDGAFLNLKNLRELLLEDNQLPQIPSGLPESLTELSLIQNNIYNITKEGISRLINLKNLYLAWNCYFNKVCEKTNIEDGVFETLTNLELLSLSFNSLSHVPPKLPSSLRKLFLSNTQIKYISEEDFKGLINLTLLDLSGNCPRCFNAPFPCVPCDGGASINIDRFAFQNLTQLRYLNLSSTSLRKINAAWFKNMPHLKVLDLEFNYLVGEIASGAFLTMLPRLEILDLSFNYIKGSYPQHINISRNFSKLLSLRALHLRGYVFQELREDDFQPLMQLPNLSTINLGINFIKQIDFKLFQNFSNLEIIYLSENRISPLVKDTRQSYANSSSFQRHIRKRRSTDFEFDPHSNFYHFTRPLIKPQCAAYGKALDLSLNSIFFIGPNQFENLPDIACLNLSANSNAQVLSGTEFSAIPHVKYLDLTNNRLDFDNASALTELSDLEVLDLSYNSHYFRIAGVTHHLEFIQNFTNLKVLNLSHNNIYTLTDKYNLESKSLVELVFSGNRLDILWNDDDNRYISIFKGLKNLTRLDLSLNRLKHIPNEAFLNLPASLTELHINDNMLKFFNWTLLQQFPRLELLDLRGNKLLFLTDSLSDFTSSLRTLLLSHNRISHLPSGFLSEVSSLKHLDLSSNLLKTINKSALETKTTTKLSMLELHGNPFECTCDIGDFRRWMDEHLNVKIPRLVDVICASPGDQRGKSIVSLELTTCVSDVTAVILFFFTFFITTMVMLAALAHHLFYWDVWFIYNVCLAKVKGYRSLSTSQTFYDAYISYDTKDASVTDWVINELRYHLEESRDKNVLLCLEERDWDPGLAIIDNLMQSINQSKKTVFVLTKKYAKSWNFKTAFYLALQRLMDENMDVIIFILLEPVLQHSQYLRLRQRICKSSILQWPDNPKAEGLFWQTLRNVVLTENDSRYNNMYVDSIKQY
Procedure: as §1, with “Iw as” for “(I) was”, “TLR8” for “TLR7”, “TLR4, TLR7” for “TLR4,”
as §2
HEK-BLUE-hTLR8 cell line was purchased from InvivoGen. The cells were cultured in Dulbecco's Modified Eagle's Media containing 4.5 g/L […] (Sigma-Aldrich) and 10% FBS. The cells were cultured at 37° C., 95% humidity and 5% CO2.
Test concentrations of the compounds ranged from 0.5 nM to 15 μM with 10 points. A known TLR8 agonist was added as positive control and 1 μl of DMSO was added as negative control.
as §3, with “follows:” for “follows.”
The cells were cultured and treated with the compounds at 37° C., 5% CO2 for 24 h.
as §4, §5

[1] = 24 h treatment, SEAP/QUANTI-Blue readout

SMILES: CCCN(CCC)C(=O)C1=Cc2ccc(-c3ccc4c(=O)n(CC(N)=O)ccc4c3)cc2N=C(N)C1 [Compound 1-2-10]
pEC50 (TLR7): < 4.30
pEC50 (TLR8; [1]): > 7.00

SMILES: CCCN(CCC)C(=O)C1=Cc2ccc(-c3ccc4c(=O)n(CC(N)=O)c(C)cc4c3)cc2N=C(N)C1 [Compound 1-2-16]
pEC50 (TLR7): < 4.30
pEC50 (TLR8; [1]): > 7.00

SMILES: CCCN(CCC)C(=O)C1=Cc2ccc(-c3ccc4c(=O)n(CCNC(C)=O)ccc4c3)cc2N=C(N)C1 [Compound 1-2-18]
pEC50 (TLR7): < 4.30
pEC50 (TLR8; [1]): > 7.00

SMILES: CCCN(CCC)C(=O)C1=Cc2ccc(-c3ccc4c(=O)n(Cc5ncccn5)ccc4c3)cc2N=C(N)C1 [Compound 1-2-31]
pEC50 (TLR7): 4.30 to 5.00
pEC50 (TLR8; [1]): > 7.00
pEC50 (TLR8; bound stated): > 8.00

SMILES: CCCN(CCC)C(=O)C1=Cc2ccc(-c3ccc4c(=O)n(Cc5nccn5C)ccc4c3)cc2N=C(N)C1 [Compound 1-2-33]
pEC50 (TLR7): < 4.30
pEC50 (TLR8; [1]): > 7.00

SMILES: CCCN(CCC)C(=O)C1=Cc2ccc(-c3ccc4c(=O)n(CCP(=O)(OCC)OCC)ccc4c3)cc2N=C(N)C1 [Compound 1-2-43]
pEC50 (TLR7): < 4.30
pEC50 (TLR8; [1]): 6.00 to 7.00

SMILES: CCCN(CCC)C(=O)C1=Cc2ccc(-c3ccc4c(=O)n(CCOP(=O)(OC)OC)ccc4c3)cc2N=C(N)C1 [Compound 1-2-45]
pEC50 (TLR7): 4.30 to 5.00
pEC50 (TLR8; [1]): > 7.00

SMILES: CCCN(CCC)C(=O)C1=Cc2ccc(-c3ccc4c(c3)CN(CCO)C4=O)cc2N=C(N)C1 [Compound 1-3-2]
pEC50 (TLR7): < 4.30
pEC50 (TLR8; [1]): > 7.00

SMILES: CCCN(CCC)C(=O)C1=Cc2ccc(-c3ccc4c(c3)CCN(CC(C)(C)O)C4=O)cc2N=C(N)C1 [Compound 1-4-2]
pEC50 (TLR7): < 4.30
pEC50 (TLR8; [1]): > 7.00

Second part, the compound after the results:

pEC50 (TLR7): < 4.30
pEC50 (TLR8; [1]): > 7.00
SMILES: CCCN(CCC)C(=O)C1=Cc2ccc(-c3ccc4c(=O)n(CC(C)(C)O)ccc4c3)cc2N=C(N)C1 [Compound 1-2-13]

pEC50 (TLR7): < 4.30
pEC50 (TLR8; [1]): > 7.00
SMILES: CCCN(CCC)C(=O)C1=Cc2ccc(-c3ccc4c(=O)n(CCOC)ccc4c3)cc2N=C(N)C1 [Compound 1-2-14]

pEC50 (TLR7): < 4.30
pEC50 (TLR8; [1]): > 7.00
SMILES: CCCN(CCC)C(=O)C1=Cc2ccc(-c3ccc4c(=O)n(CCN)ccc4c3)cc2N=C(N)C1 [Compound 1-2-17]

pEC50 (TLR7): < 4.30
pEC50 (TLR8; [1]): > 7.00
SMILES: CCCN(CCC)C(=O)C1=Cc2ccc(-c3ccc4c(=O)n(CCNS(C)(=O)=O)ccc4c3)cc2N=C(N)C1 [Compound 1-2-19]

pEC50 (TLR7): < 4.30
pEC50 (TLR8; [1]): > 7.00
SMILES: CCCN(CCC)C(=O)C1=Cc2ccc(-c3ccc4c(=O)n(CC(=O)NC)ccc4c3)cc2N=C(N)C1 [Compound 1-2-21]

pEC50 (TLR7): < 4.30
pEC50 (TLR8; [1]): > 7.00
SMILES: CCCN(CCC)C(=O)C1=Cc2ccc(-c3ccc4c(=O)n(CCSC)ccc4c3)cc2N=C(N)C1 [Compound 1-2-22]

pEC50 (TLR7): < 4.30
pEC50 (TLR8; [1]): > 7.00
SMILES: CCCN(CCC)C(=O)C1=Cc2ccc(-c3ccc4c(=O)n(CCS(C)(=O)=O)ccc4c3)cc2N=C(N)C1 [Compound 1-2-23]

pEC50 (TLR7): 4.30 to 5.00
pEC50 (TLR8; [1]): > 7.00
SMILES: CCCN(CCC)C(=O)C1=Cc2ccc(-c3ccc4c(=O)n(Cc5ncco5)ccc4c3)cc2N=C(N)C1 [Compound 1-2-28]

pEC50 (TLR7): 5.00 to 6.00
pEC50 (TLR8; [1]): > 7.00
SMILES: CCCN(CCC)C(=O)C1=Cc2ccc(-c3ccc4c(=O)n(CCn5cccn5)ccc4c3)cc2N=C(N)C1 [Compound 1-2-32]

pEC50 (TLR7): < 4.30
pEC50 (TLR8; [1]): > 7.00
SMILES: CCCN(CCC)C(=O)C1=Cc2ccc(-c3ccc4c(=O)n(Cc5ccn(C)n5)ccc4c3)cc2N=C(N)C1 [Compound 1-2-35]

pEC50 (TLR7): 4.30 to 5.00
pEC50 (TLR8; [1]): > 7.00
SMILES: CCCN(CCC)C(=O)C1=Cc2ccc(-c3ccc4c(=O)n(Cc5nncn5C)ccc4c3)cc2N=C(N)C1 [Compound 1-2-36]

pEC50 (TLR7): < 4.30
pEC50 (TLR8; [1]): > 7.00
pEC50 (TLR8; bound stated): > 8.00
SMILES: CCCN(CCC)C(=O)C1=Cc2ccc(-c3ccc4c(=O)n(Cc5nnnn5C)ccc4c3)cc2N=C(N)C1 [Compound 1-2-40]

pEC50 (TLR7): < 4.30
pEC50 (TLR8; [1]): 6.00 to 7.00
SMILES: CCCN(CCC)C(=O)C1=Cc2ccc(-c3ccc4c(c3)CCN(CCO)C4=O)cc2N=C(N)C1 [Compound 1-4-10]

pEC50 (TLR7): < 4.30
pEC50 (TLR8; [1]): 6.00 to 7.00
SMILES: CCCN(CCC)C(=O)C1=Cc2ccc(-c3ccc4c(=O)n(CCS(C)(=O)=O)cnc4c3)cc2N=C(N)C1 [Compound 1-7-2]
